Experimental data as given in patent US6306860A, “2,5-pyridinedicarboxylic acid derivatives” (Dong Wha Pharm. Inc. Co., Ltd., priority 1998, dated 2001).
Counter-ions that a name gives are not always drawn.

Columns and labels:
[1] = biological target: T1, HBV polymerase (Hepatitis B virus genotype D subtype ayw, UniProt P03156); assay: Inhibitory activities against HBV polymerase (reverse transcriptase activity) in vitro; format: biochemical; settings: read-out: Inhibitory activity of HBV-RT (%); for inhibition at 0.01 µg/mL: 0.01 μg/ml; for inhibition at 0.1 µg/mL: 0.1 μg/ml; for inhibition at 1 µg/mL: 1 μg/ml
T1 construct: made in house; host or cells: E. coli
Source text: Experiment 1:Inhibitory Activities Against HBV Polymerase in vitro
Recently, the inventors of the present invention have produced a recombinant HBV polymerase that is expressed from E.coli transformant, measured its enzyme activity and filed patent applications threrof [Korean Pat. Appl. Nos. 94-3918 and 96-33998].
The inventors have also established a method of measuring the reverse transcriptase activity of HBV polymerase in vitro. The fundamental principle is the same as the ELISA method, and after reacting the substrate with biotin- and DIG-modified nucleotide, a method of recognizing the polymerized substrate as anti-DIG antibody with peroxidase was used.
20 μl of HBV polymerase, 20 μl of reaction mixture and 20 μl of test compound was mixed and reacted at 14° C.~30° C. for 18~24 hours. Then, the inhibitory effect of the test compound against reverse transcriptase activity in the HBV polymerase was examined, compared with the results of control tests without the test compound.

[2] = biological target: T2, HIV reverse transcriptase (Human immunodeficiency virus type 1 group M subtype B, UniProt P04585); assay: In vitro inhibition test against HIV reverse transcriptase; format: biochemical; settings: read-out: Inhibitory activity of HIV-RT (%); for inhibition at 0.1 µg/mL: 0.1 μg/ml; for inhibition at 1 µg/mL: 1 μg/ml
T2 construct: purchased Boehringer Mannheim
Experimental: Experiment 2: The in vitro Inhibition Test Against HIV Reverse Transcriptase
The inhibitory activity in vitro was measured using a non-radioactive reverse transcriptase assay Kit (Boehringer Mannheim).
At first, 20 μl(40 ng) of HIV-RT was added to the wells, coated with streptavidin and with the addition of 20 μl reaction mixture containing template/primer hybrid poly(A)/oligo(dT)15 and DIG-(digoxigenin)-dUTP, biotin-dUTP and TTP, 20 μl of test compound was added and reacted at 37° C. for 1 hour. The control without test compound was used for the comparison of related activity. Since DNA containing nucleotide labeled with digoxigenin and biotine was prepared by the action of HIV-RT, it was combined with streptavidin coated at the bottom of the wells. After the reaction was completed, remaining impurities were removed by washing each well with 250 μl buffer solution (pH 7.0) for 30 seconds 5 times and with the addition of 200 μl anti-DIG-POD antibody, the mixture was reacted at 37° C. for 1 hour. For the removal of remaining impurities again, the reacting solution was washed with a buffer solution and with the addition of 200 μl ABTS™ each, a substrate of POD(peroxidase), the solution was reacted at room temperature for 30 minutes. The absorbance was read by ELISA reader at 405 nm for the assay of reverse transcriptase activity and its inhibition activity.

T1 sequence (P03156 whole entry): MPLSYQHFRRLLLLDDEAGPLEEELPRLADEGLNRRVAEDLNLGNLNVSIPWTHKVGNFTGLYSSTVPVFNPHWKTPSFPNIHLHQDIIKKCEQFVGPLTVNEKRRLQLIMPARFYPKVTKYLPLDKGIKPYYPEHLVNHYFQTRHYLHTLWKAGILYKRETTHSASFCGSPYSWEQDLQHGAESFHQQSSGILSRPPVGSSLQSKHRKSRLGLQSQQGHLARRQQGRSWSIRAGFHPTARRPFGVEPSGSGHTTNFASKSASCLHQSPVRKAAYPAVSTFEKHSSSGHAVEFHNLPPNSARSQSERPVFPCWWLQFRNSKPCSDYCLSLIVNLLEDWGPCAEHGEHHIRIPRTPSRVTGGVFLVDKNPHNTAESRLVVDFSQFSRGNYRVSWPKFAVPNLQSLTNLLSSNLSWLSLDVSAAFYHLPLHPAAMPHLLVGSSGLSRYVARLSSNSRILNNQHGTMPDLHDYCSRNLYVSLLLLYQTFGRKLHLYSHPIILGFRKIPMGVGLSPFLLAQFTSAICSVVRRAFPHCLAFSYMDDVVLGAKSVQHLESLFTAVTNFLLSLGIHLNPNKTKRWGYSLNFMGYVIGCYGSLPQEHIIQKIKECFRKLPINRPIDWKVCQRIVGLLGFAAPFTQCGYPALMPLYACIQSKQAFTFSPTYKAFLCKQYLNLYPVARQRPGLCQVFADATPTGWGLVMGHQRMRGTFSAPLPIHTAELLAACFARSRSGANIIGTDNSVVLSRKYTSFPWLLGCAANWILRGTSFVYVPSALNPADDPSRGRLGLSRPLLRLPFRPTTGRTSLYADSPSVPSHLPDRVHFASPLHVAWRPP

Row | Compound | inhibition at 0.1 µg/mL [1] | inhibition at 1 µg/mL [1] | inhibition at 0.01 µg/mL [1] | inhibition at 0.1 µg/mL [2] | inhibition at 1 µg/mL [2]
1 | CC(C)Nc1cccnc1N1CCN(C(=O)c2ccc(C(=O)NCCOCCO)cn2)CC1 [Exam. 48, 5-[N-[2-(2-hydroxyethoxy)ethyl]carbamoyl]-2-[1-[3-(isopropylamino)-2-pyridyl]piperazin-4-yl-carbonyl]pyridine] | 66% | 79% | 52% | 41% | 52%
2 | COC(CNC(=O)c1ccc(C(=O)N2CCN(c3ncccc3NC(C)C)CC2)nc1)OC [Exam. 51, 5-[N-(2,2-dimethoxyethyl)carbamoyl]-2-[1-[3-(isopropylamino)-2-pyridyl]piperazin-4-yl-carbonyl]pyridine] | 65% | 87% | 57% | 30% | 51%
3 | CC(C)CNC(=O)c1ccc(C(=O)N2CCN(c3ncccc3NC(C)C)CC2)nc1 [Exam. 30, 2-[1-[3-(isopropylamino)-2-pyridyl]piperazin-4-yl-carbonyl]-5-[N-(2-methylpropyl)carbamoyl]pyridine] | 65% | 83% | 61% | 32% | 58%
4 | CC(C)Nc1cccnc1N1CCN(C(=O)c2ccc(C(=O)NCCCn3ccnc3)cn2)CC1 [Exam. 83, N-[3-(1H-imidazol-1-yl)propyl]-6-[1-[3-(isopropylamino)-2-pyridyl]piperazin-4-yl-carbonyl]nicotinamide] | 72% | 89% | 65% | 30% | 62%
5 | Cc1csc(NC(=O)c2ccc(C(=O)N3CCN(c4ncccc4NC(C)C)CC3)nc2)n1 [Exam. 68, 6-[1-[3-(isopropylamino)-2-pyridyl)piperazin-4-yl-carbonyl]-N-(4-methyl-1,3-thiazol-2-yl)nicotinamide] | 69% | 81% | 30% | 53% | 70%
6 | CC(C)Nc1cccnc1N1CCN(C(=O)c2ccc(C(=O)NCCc3ccccn3)cn2)CC1 [Exam. 82, 6-[1-[3-(isopropylamino)-2-pyridyl]piperazin-4-yl-carbonyl]-N-[2-(2-pyridyl)ethyl]nicotinamide] | 53% | 67% | 24% | 65% | 80%
7 | COCCNC(=O)c1ccc(C(=O)N2CCN(c3ncccc3NC(C)C)CC2)nc1 [Exam. 39, 2-[1-[3-(isopropylamino)-2-pyridyl]piperazin-4-yl-carbonyl]-5-[N-(2-methoxyethyl)carbamoyl]pyridine] | 68% | 80% | 60% | 65% | 72%
8 | CC(C)Nc1cccnc1N1CCN(C(=O)c2ccc(C(=O)NCC3CCCO3)cn2)CC1 (stereo not drawn) [Exam. 53, 2-[1-[3-(isopropylamino)-2-pyridyl]piperazin-4-yl-carbonyl]-5-[N-(tetrahydrofuran-2-yl-methyl)carbamoyl]pyridine] | 60% | 74% | 52% | 59% | 78%
9 | CC(C)Nc1cccnc1N1CCN(C(=O)c2ccc(C(=O)NC3CCCC3)cn2)CC1 [Exam. 37, 5-(N-cyclopentylcarbamoyl)-2-[1-[3-(isopropylamino)-2-pyridyl]piperazin-4-yl-carbonyl]pyridine] | 65% | 75% | 39% | 25% | 51%
10 | CC(C)Nc1cccnc1N1CCN(C(=O)c2ccc(C(=O)NCCN(C)C)cn2)CC1 [Exam. 62, 5-[N-[2-(dimethylamino)ethyl]carbamoyl]-2-[1-[3-(isopropylamino)-2-pyridyl]piperazin-4-yl-carbonyl]pyridine.HCl] | 58% | 69% | 47% | 63% | 79%
11 | CC(C)CNc1cccnc1N1CCN(C(=O)c2ccc(C(=O)NC(C)C)cn2)CC1 [Exam. 26, 2-[1-[3-(isobutylamino)-2-pyridyl]piperazin-4-yl-carbonyl]-5-(N-isopropylcarbamoyl)pyridine] | 66% | 90% | 58% | 45% | 60%
12 | CC(C)(CO)NC(=O)c1ccc(C(=O)N2CCN(c3ncccc3N)CC2)nc1 [Exam. 21, 2-[1-(3-amino-2-pyridyl)piperazin-4-yl-carbonyl]-5-[N-(1,1-dimethyl-2-hydroxyethyl)carbamoyl]pyridine] | 62% | 70% | 38% |  | 
13 | CC(C)Nc1cccnc1N1CCN(C(=O)c2ccc(C(=O)N(CCO)c3ccccc3)cn2)CC1 [Exam. 17] | 53% | 66% | 42% |  | 
14 | CC(C)Nc1cccnc1N1CCN(C(=O)c2ccc(C(=O)N[C@@H](C)CO)cn2)CC1 [Exam. 4, 5-[N-[(1S)-2-hydroxy-1-methylethyl]carbamoyl]-2-[1-[3-(isopropylamino)-2-pyridyl]piperazin-4-yl-carbonyl]pyridine] | 39% | 56% | 30% |  | 
15 | CC(C)Nc1cccnc1N1CCN(C(=O)c2ccc(C(=O)N[C@H](C)CO)cn2)CC1 [Exam. 3, 5-[N-[(1R)-2-hydroxy-1-methylethyl]carbamoyl]-2-[1-[3-(isopropylamino)-2-pyridyl]piperazin-4-yl-carbonyl]pyridine] | 57% | 74% | 41% |  | 

Continued, in another order:

Row | inhibition at 0.1 µg/mL [1] | inhibition at 1 µg/mL [1] | Compound | inhibition at 0.01 µg/mL [1] | inhibition at 0.1 µg/mL [2] | inhibition at 1 µg/mL [2]
16 | 46% | 71% | CC(C)CNc1cccnc1N1CCN(C(=O)c2ccc(C(=O)Nc3ncccc3O)cn2)CC1 [Exam. 86] | 13% |  | 
17 | 67% | 74% | Nc1cccnc1N1CCN(C(=O)c2ccc(C(=O)NCCO)cn2)CC1 [Exam. 20, 2-[1-(3-Amino-2-pyridyl)piperazine4-yl-carbonyl]-5-[N-(2-hydroxyethyl)carbamoyl]pyridine] | 54% |  | 
18 | 10% | 35% | CCN(CCO)C(=O)c1ccc(C(=O)N2CCN(c3ncccc3NC(C)C)CC2)nc1 [Exam. 14, 5-[N-ethyl-N-(2-hydroxyethyl)carbamoyl]-2-[1-[3-(isopropylamino)-2-pyridyl]piperazin-4-yl-carbonyl]pyridine] |  |  | 
19 | 51% | 54% | CC(C)Nc1cccnc1N1CCN(C(=O)c2ccc(C(=O)NCCO)cn2)CC1 [Exam. 1, 5-[N-(2-hydroxyethyl)carbamoyl]-2-[1-[3-(isopropylamino)-2-pyridyl]piperazin-4-yl-carbonyl]pyridine] | 30% |  | 
20 | 56% | 72% | CCNc1cccnc1N1CCN(C(=O)c2ccc(C(=O)NC(C)(C)CO)cn2)CC1 [Exam. 19, 5-[N-(1,1-dimethyl-2-hydroxyethyl)carbamoyl]-2-[1-[3-(ethylamino)-2-pyridyl]piperazin-4-yl-carbonyl]pyridine] | 32% |  | 
21 | 64% | 70% | CC[C@H](CO)NC(=O)c1ccc(C(=O)N2CCN(c3ncccc3NC(C)C)CC2)nc1 [Exam. 7, 5-[N-[(1R)-1-ethyl-2-hydroxyethyl]carbamoyl]-2-[1-[3-(isopropylamino)-2-pyridyl]piperazin-4-yl-carbonyl]pyridine] | 53% |  | 
22 | 60% | 71% | CC(C)Nc1cccnc1N1CCN(C(=O)c2ccc(C(=O)NCCCO)cn2)CC1 [Exam. 2, 5-[N-(3-Hydroxypropyl)carbamoyl]-2-[1-[3-(isopropylamino)-2-pyridyl]piperazine-4-yl-carbonyl]pyridine] | 49% |  | 
23 | 69% | 84% | CCNc1cccnc1N1CCN(C(=O)c2ccc(C(=O)NCCO)cn2)CC1 [Exam. 18, 2-[1-[3-(ethylamino)-2-pyridyl]piperazin-4-yl-carbonyl]-5-[N-(2-hydroxyethyl)carbamoyl]pyridine] | 52% |  | 
